Patent US20120149700A1, “2-CYANOPHENYL FUSED HETEROCYCLIC COMPOUNDS, AND COMPOSTIONS AND USES THEREOF” (priority 2007, published 2012)

Key:
P2X3 = biological target: T1, P2X3 (Homo sapiens, UniProt P56373); assay: Calcium uptake assay (P2X antagonist assay, inhibition of agonist-induced calcium influx), P2X3; type: cell-based; conditions: inhibition of agonist-induced calcium influx in cells expressing the receptor
T1 construct: expressed in transfected cells; host or cells: e.g. HEK293 or 1321N1
T1 sequence (P56373 1-397): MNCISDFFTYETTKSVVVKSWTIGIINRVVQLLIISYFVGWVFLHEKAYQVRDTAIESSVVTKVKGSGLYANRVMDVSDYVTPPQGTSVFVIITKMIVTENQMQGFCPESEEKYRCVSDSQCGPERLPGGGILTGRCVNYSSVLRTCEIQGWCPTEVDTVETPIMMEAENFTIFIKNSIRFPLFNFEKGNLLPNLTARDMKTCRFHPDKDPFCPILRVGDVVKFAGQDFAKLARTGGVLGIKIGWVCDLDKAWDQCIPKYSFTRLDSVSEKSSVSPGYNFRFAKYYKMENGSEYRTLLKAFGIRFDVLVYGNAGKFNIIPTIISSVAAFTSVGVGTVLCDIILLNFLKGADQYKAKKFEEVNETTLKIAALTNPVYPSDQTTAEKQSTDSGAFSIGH
Description: (§1) The human P2X2/3 chimera clone is created as described by Neelands et al, and then cloned into an expression vector as above. Receptors are expressed in cells (e.g., HEK293 or 1321N1 (obtained from the ECACC)) via transient transfection using standard lipid mediated transfection, or by creation of stable transfectants for each receptor. For expression of the P2X2/3 heteromeric receptor, the P2X3 expression vector is stably transfected into a cell line already stably expressing P2X2. P2X2/3 heteromer function is isolated using pharmacological methods. Cell lines are maintained in DMEM+5% Glutamax, the appropriate level of selective antibiotic, and 10% heat inactivated FBS.
(§2) Functional activity of compounds at the P2X receptor is determined by measuring their ability to inhibit agonist-induced calcium influx. Compounds are tested for antagonist activity against the P2X2/3 chimera, the P2X3 homomer, or the P2X2/3 heteromer. At the start of each screening day, the agonist EC50 is determined. Compound % inhibition or IC50s are subsequently determined using a pre-determined agonist concentration (EC50-90 depending on cell line) as a stimulus. The agonists used are αβMeATP, ATP, or other ATP analogs. Compounds may be tested at concentrations ranging from 1 pM to 10 μM.
(§3) To test for antagonist activity, cells expressing the appropriate receptor are seeded onto 96 or 384 well plates 18-24 hours prior to assay. […] Plates are incubated at 37° C. and then equilibrated at room temperature. Antagonism of agonist-induced calcium influx is measured using a fluorescent imaging plate reader (e.g. FLIPR^TETRA, Molecular Devices, Sunnyvale, Calif.). The assay comprises two stages: a pre-treatment phase followed by a treatment phase. Compounds may be tested as follows: For the pre-treatment phase, 50 μL of 3× concentration of test compound in HBSS is added to cells containing 100 μL of dye loading media to achieve a final concentration of 1× test compound. For the treatment phase, at a set interval after pre-treatment (1-30 minutes), 50 μl, of 1× test compound plus 4× agonist solution is added, resulting in a final concentration of 1× compound and 1× agonist. […] Responses are measured as (peak fluorescence after agonist addition) minus (baseline fluorescence prior to treatment). Percent inhibition is calculated as follows: […]
(§4) IC50 values are determined by analyzing dose response data in a 4 parameter logistic fit using GraphPad Prizm.

P2X2/3 = biological target: T2, P2X2/3 (Homo sapiens, UniProt P56373+Q9UBL9); assay: Calcium uptake assay (P2X antagonist assay, inhibition of agonist-induced calcium influx), P2X2/3; type: cell-based; conditions: inhibition of agonist-induced calcium influx in cells expressing the receptor
T2 construct: expressed in transfected cells; host or cells: cell line stably expressing P2X2, stably transfected with P2X3 (e.g. HEK293 or 1321N1)
T2 sequence (Q9UBL9 1-471): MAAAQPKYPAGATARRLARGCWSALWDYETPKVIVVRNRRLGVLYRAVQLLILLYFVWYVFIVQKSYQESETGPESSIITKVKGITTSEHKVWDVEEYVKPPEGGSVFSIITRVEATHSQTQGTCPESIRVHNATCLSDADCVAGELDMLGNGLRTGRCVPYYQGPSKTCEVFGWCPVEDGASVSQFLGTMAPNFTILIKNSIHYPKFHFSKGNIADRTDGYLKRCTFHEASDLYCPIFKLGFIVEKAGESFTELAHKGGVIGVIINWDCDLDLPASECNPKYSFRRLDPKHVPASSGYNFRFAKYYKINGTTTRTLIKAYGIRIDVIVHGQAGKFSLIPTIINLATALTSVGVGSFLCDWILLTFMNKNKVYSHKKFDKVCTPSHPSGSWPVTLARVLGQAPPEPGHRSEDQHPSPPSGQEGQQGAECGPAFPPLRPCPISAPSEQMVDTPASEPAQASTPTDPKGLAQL
T2 sequence (P56373 1-397): T1 sequence (P56373 1-397)
Description: as §1, §2, §3, §4

Row | IC50 (P2X3) | IC50 (P2X2/3) | Structure (SMILES)
1 | 0.023 µM | 0.059 µM | Cc1ccc(N2CCc3ncnc(N[C@H](CCO)c4ccc(C(F)(F)F)nc4)c3C2)c(C#N)c1 [Compound 64, 2-{4-[(R)-3-Hydroxy-1-(6-trifluoromethyl-pyridin-3-yl)-propylamino]-7,8-dihydro-5H-pyrido[4,3-d]pyrimidin-6-yl}-5-methyl-benzonitrile]
2 | 0.806 µM | 5.42 µM | Cc1ccc(N2CCc3ncnc(N[C@@H](CCO)c4ccc(C(F)(F)F)nc4)c3C2)c(C#N)c1 [Compound 65, 2-{4-[(S)-3-Hydroxy-1-(6-trifluoromethyl-pyridin-3-yl)-propylamino]-7,8-dihydro-5H-pyrido[4,3-d]pyrimidin-6-yl}-5-methyl-benzonitrile]
3 | 0.037 µM | 0.12 µM | Cc1ccc(N2CCc3ncnc(NCc4ccc(Cl)c(S(C)(=O)=O)c4)c3C2)c(C#N)c1 [Compound 71, 2-[4-(4-Chloro-3-methanesulfonyl-benzylamino)-7,8-dihydro-5H-pyrido[4,3-d]pyrimidin-6-yl]-5-methyl-benzonitrile]
4 | 0.016 µM | 0.404 µM | N#Cc1cc(Cl)ccc1N1CCc2ncnc(N[C@H](CO)c3ccc(C(F)F)nc3)c2C1 [Compound 72, 5-Chloro-2-[4-[(S)-1-(6-difluoromethyl-pyridin-3-yl)-2-hydroxy-ethylamino]-7,8-dihydro-5H-pyrido[4,3-d]pyrimidin-6-yl]-benzonitrile]
5 | 0.04 µM | 0.241 µM | Cc1ccc(CNc2ncnc3c2CN(c2ccc(Cl)cc2C#N)CC3)cc1S(C)(=O)=O [Compound 76, 5-Chloro-2-[4-(3-methanesulfonyl-4-methyl-benzylamino)-7,8-dihydro-5H-pyrido[4,3-d]pyrimidin-6-yl]-benzonitrile]
6 | 0.13 µM | 0.536 µM | CC(=O)OCC[C@@H](Nc1ncnc2c1CN(c1ccc(C)cc1C#N)CC2)c1ccc(C(F)(F)F)nc1 [Compound 77, Acetic acid (R)-3-[6-(2-cyano-4-methyl-phenyl)-5,6,7,8-tetrahydro-pyrido[4,3-d]pyrimidin-4-ylamino]-3-(6-trifluoromethyl-pyridin-3-yl)-propyl ester]
7 | 0.034 µM | 0.067 µM | Cc1ccc(N2CCc3ncnc(NCc4ccc5nccnc5c4)c3C2)c(C#N)c1 [Compound 79, 5-Methyl-2-(4-(quinoxalin-6-ylmethylamino)-7,8-dihydropyrido[4,3-d]pyrimidin-6(5H)-yl)benzonitrile]
8 | 0.156 µM | 0.263 µM | Cc1ccc(N2CCc3ncnc(NCc4ccc5ccccc5n4)c3C2)c(C#N)c1 [Compound 80, 5-Methyl-2-(4-(quinolin-2-ylmethylamino)-7,8-dihydropyrido[4,3-d]pyrimidin-6(5H)-yl)benzonitrile]
9 | 0.423 µM | 2.16 µM | Cc1ccc(N2CCc3ncnc(NCc4ccc5cc[nH]c5c4)c3C2)c(C#N)c1 [Compound 81, 2-(4-((1H-Indol-6-yl)methylamino)-7,8-dihydropyrido[4,3-d]pyrimidin-6(5H)-yl)-5-methylbenzonitrile]
10 | 0.056 µM | 0.31 µM | Cc1ccc(N2CCc3ncnc(NCc4ccc5c(c4)OCO5)c3C2)c(C#N)c1 [Compound 82, 2-(4-(Benzo[d][1,3]dioxol-5-ylmethylamino)-7,8-dihydropyrido[4,3-d]pyrimidin-6(5H)-yl)-5-methylbenzonitrile]
11 | 0.125 µM | 0.478 µM | N#Cc1cc(Cl)ccc1N1CCc2ncnc(NCc3ccc4nccnc4c3)c2C1 [Compound 84, 5-Chloro-2-{4-[(quinoxalin-6-ylmethyl)-amino]-7,8-dihydro-5H-pyrido[4,3-d]pyrimidin-6-yl}-benzonitrile]
12 | 0.02 µM | 0.024 µM | Cc1ccc(N2CCc3ncnc(NCc4ccc5cccnc5c4)c3C2)c(C#N)c1 [Compound 92, 5-Methyl-2-(4-(quinolin-7-ylmethylamino)-7,8-dihydropyrido[4,3-d]pyrimidin-6(5H)-yl)benzonitrile]
